Results published in patent publication USRE31463E, “Radiopharmaceutical chelates and method of external imaging” (priority 1980, dated 1983).
Read-outs that look alike come from different tables or passages of the source. Values belong to the substance of their own block, whether it stands above or below them.

Key:
[1] = mouse, in vivo, iv; for injected dose in the blood: 60 min
[2] = Biodistribution in mice after intravenous injection (organ activities by scintillation counter); conditions: i.v., 60 minutes

Substance: gallium-67 chelate of 8-hydroxyquinoline [Example 9]
- injected dose in the blood [2]: 20%
- injected dose in the intestines [2]: 13%
- injected dose in the liver [2]: 25%

Substance: technetium-99m chelate of nitrilotriacetic acid [Example 10]
- injected dose found in the liver and intestines [1]: less than 5%
- route of elimination / renal clearance [1]: rapidly clear through the kidneys to urine
- eliminated in urine ([1]; 1 h): 40%

Substance: technetium-99m chelate of 10-carboxydecyliminodiacetic acid [Example 12]
- blood clearance [1]: rapid blood clearance
- persistent activity in organs [1]: persistent activity noted in the liver and lungs
- route of elimination / renal clearance [1]: eliminated through both kidneys and liver
- injected dose in the blood [1]: less than 6%

Next, values leading:

- route of elimination / renal clearance [1]: rapid renal clearance
Substance: gallium-67 chelate of methyliminodiacetic acid [Example 15]

- injected dose in the intestines ([1]; 30 min): 12%
- injected dose in the liver ([1]; 30 min): 28%
Substance: cobalt-57 chelate of N-[N'-(2,6-dimethylphenyl) carbamoylmethyl] iminodiacetic acid [Example 11]

- blood clearance [1]: rapid blood clearance
- injected dose in the intestines ([1]; 30 min): 30%
- injected dose in the blood [1]: less than 5%
Substance: technetium-99m chelate of N-(o-bromobenzyl) iminodiacetic acid [Example 13]
